Values joined by “and” are separate entries in the source; they are usually repeats but may differ in a detail not shown here. Equal entries are not always repeated.

One molecule from PMC11211886 (Frontiers in Pharmacology, 2024) can be followed below.

Common to all, as to format: in vitro ADME
The target in one data set is T1, CYP2C8 (Homo sapiens, UniProt P10632).
T1 construct: tissue Life Technologies (Durham, NC, USA); host or cells: human liver microsomes
T1 sequence (P10632 1-490): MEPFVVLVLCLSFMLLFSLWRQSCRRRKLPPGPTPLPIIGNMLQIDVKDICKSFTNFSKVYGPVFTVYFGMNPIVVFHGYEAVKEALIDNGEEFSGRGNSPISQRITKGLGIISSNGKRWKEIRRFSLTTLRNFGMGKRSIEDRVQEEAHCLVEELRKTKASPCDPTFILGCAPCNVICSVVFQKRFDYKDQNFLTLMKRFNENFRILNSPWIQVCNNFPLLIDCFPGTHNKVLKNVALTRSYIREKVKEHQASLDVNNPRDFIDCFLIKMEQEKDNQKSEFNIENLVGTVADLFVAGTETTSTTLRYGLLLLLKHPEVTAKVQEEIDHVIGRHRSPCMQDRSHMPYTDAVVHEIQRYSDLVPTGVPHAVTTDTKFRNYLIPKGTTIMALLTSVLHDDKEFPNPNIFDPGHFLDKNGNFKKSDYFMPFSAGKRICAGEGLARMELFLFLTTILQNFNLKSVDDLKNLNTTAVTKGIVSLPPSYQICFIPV
Kind of data set: Reversible CYP inhibition in HLM, CYP2C8 (paclitaxel). To be noted: for enzyme activity remaining: CYP2C8, HLM. As to the method: The markers used to determine the activities of CYP isoforms were phenacetin O-deethylation for CYP1A2 (probe substrate: 50 µM phenacetin), bupropion hydroxylation for CYP2B6 (probe substrate: 70 µM bupropion), paclitaxel 6α-hydroxylation for CYP2C8 (probe substrate: 10 µM paclitaxel), diclofenac 4′-hydroxylation for CYP2C9 (probe substrate: 5 µM diclofenac), S-(+)-mephenytoin 4′-hydroxylation for CYP2C19 (probe substrate: 20 µM S-(+)-mephenytoin), dextromethorphan O-demethylation for CYP2D6 (probe substrate: 6 µM dextromethorphan), chlorzoxazone 6′-hydroxylation for CYP2E1 (probe substrate: 70 µM chlorzoxazone), and testosterone 6β-hydroxylation and midazolam 1′-hydroxylation for CYP3A4/5 (probe substrate: 45 µM testosterone and 5 µM midazolam). […] Alpha-naphthoflavone (0.04 µM), 2-phenyl-2-(1-piperidinyl)propane (5 µM), quercetin (1 µM), sulfaphenazole (0.5 µM), ticlopidine (4 µM), quinidine (0.2 µM), diethyldithiocarbamate (20 µM), and ketoconazole (0.05 µM) were used as positive inhibitors of CYP1A2, 2B6, 2C8, 2C9, 2C19, 2D6, 2E1, and 3A4, respectively. The vehicle control was prepared in the same composition as inhibitor solutions but free of inhibitors. The concentrations of probe substrates were close to Km values that were determined in-house and within the range recommended by the FDA ([Huang et al., 2007]). Reaction mixtures were incubated at 37°C for 5, 20, or 30 min, depending on the probe substrates of CYP isoforms. The reactions were terminated by adding cold acetonitrile containing IS, and the terminated incubation mixtures were centrifuged at 3,000 g for 10 min before LC-MS/MS analysis.

For a further data set, the target named is T2, CYP2B6 (Homo sapiens, UniProt P20813).
T2 construct: tissue Life Technologies (Durham, NC, USA); host or cells: human liver microsomes
T2 sequence (P20813 1-491): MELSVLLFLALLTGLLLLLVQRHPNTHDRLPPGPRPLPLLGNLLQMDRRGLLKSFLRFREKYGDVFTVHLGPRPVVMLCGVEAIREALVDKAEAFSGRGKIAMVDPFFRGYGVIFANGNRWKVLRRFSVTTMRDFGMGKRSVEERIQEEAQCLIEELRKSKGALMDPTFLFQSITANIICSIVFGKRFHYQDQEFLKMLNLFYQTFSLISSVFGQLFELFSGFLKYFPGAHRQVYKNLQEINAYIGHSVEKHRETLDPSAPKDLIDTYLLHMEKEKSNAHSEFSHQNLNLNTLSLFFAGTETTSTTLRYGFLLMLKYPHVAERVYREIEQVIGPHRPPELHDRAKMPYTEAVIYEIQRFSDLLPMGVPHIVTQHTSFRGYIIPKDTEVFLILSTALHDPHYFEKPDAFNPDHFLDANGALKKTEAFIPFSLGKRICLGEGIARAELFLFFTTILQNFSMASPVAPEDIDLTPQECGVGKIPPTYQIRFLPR
Kind of data set: Time-dependent CYP inhibition in HLM, CYP2B6. To be noted: 10 μM, 30 min pre-incubation with NADPH. As to the method: (§1) The procedure of time-dependent CYP inhibition was similar to that used for CYP reversible inhibition, as mentioned above, except that a pre-incubation step was added. […] Another appropriate volume of the NADPH-regenerating system and probe substrate were added to initiate the CYP isoform enzyme activity test step. For this step, the incubation period was 10 min, except for CYP2B6, CYP2C8, and CYP3A4/5 (probe substrate: midazolam), which was 3 min to make sure the reaction was under initial linear rates. After incubation for the designated time periods at 37°C, the ice-cold acetonitrile containing IS was added to quench the reaction. […] (Ainactivator/[…] represents the enzyme activity remaining due to the inhibition by the diluted inactivator in the enzyme activity test step, and (Ainactivator/[…] represents the remaining enzyme activity due to pre-incubation loss plus inhibition by the diluted inactivator in the enzyme activity test step.

A further data set addresses T3, CYP2C19 (Homo sapiens, UniProt P33261).
T3 construct: tissue Life Technologies (Durham, NC, USA); host or cells: human liver microsomes
Description: Time-dependent CYP inhibition in HLM, CYP2C19. As to conditions: 10 μM, 30 min pre-incubation with NADPH. Here is the method:
as §1

For the next data set, the target named is T4, CYP1A2 (Homo sapiens, UniProt P05177).
T4 construct: tissue Life Technologies (Durham, NC, USA); host or cells: human liver microsomes
T4 sequence (P05177 1-516): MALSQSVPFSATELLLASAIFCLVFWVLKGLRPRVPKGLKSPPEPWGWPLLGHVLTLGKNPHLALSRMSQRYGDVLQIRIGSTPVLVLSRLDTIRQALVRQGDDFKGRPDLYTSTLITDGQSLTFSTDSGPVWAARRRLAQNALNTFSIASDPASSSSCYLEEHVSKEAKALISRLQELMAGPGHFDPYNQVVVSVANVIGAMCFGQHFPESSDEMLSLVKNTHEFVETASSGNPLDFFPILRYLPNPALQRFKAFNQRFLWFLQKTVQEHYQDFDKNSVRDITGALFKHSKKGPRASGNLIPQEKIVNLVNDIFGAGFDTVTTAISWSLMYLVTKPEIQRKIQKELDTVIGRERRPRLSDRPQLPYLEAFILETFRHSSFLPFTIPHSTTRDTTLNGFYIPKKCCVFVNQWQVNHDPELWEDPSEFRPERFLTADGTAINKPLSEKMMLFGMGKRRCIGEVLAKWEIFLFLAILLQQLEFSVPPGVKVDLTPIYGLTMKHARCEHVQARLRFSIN
Kind of data set: Time-dependent CYP inhibition in HLM, CYP1A2. As to conditions: 10 μM, 30 min pre-incubation with NADPH. As to the method: as §1

T3 sequence (P33261 whole entry): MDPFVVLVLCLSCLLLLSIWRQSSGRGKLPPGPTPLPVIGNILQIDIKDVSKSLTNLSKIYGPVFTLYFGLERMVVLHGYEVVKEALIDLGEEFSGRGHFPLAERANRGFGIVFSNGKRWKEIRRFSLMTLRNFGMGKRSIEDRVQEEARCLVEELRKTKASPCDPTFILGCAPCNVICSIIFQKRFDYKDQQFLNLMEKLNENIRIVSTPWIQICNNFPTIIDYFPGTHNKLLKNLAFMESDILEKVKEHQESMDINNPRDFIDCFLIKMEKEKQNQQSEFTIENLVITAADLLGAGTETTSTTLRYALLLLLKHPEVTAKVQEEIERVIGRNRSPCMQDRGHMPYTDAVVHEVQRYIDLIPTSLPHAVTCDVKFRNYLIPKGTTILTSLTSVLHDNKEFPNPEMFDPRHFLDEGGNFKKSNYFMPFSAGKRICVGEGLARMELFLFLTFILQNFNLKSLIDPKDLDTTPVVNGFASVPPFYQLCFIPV

Consider `C[C@H](Nc1ncnc(N)c1C#N)c1cc2ncc(Cl)n2nc1-c1ccccc1` [Amdizalisib], for which the enzyme activity remaining on CYP2C8 (0.08 μM) was 110% and 105%; at CYP2C8 (0.4 μM) it was 105% and 109%; at CYP2C8 (2 μM), 98.8% and 104%; on CYP2C8 (10 μM) it was 67.3% and 76.5%; on CYP2C8 (50 μM), 38.0% and 39.6%. Also, at CYP2C8 (HLM, reversible, without pre-incubation), the IC50 stood at 30.4 µM. Moreover, the “activity loss of CYP2B6” value at CYP2B6 is given as “less than 10%”. Also, the “activity loss of CYP2C19” value at CYP2C19 was “less than 10%”. Besides, the “activity loss of CYP1A2” value on CYP1A2 is “less than 10%”.

As usually defined, the IC50 is the concentration needed to halve the response being measured. Lower therefore signals inhibition by little substance.
